# Reference: PubChem BioAssay (NCI)
#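 Method: 48-hour compound exposure of cells in 96-well plates, five concentrations, linear interpolation of endpoints. GI50: concentration for 50% inhibition of growth. At the TGI there is no net growth.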
# Columns and labels:
# Experiment in all cases: growth of human tumour cells (NCI), 48 h
# 786-0 renal = system: 786-0 renal
# A498 renal = system: A498 renal
# A549 NSCLC = system: A549 NSCLC
# ACHN renal = system: ACHN renal
# BT-549 breast = system: BT-549 breast
# CAKI-1 renal = system: CAKI-1 renal
# CCRF-CEM leukemia = system: CCRF-CEM leukemia
# COLO 205 colon = system: COLO 205 colon
# DU-145 prostate = system: DU-145 prostate
# EKVX NSCLC = system: EKVX NSCLC
# HCC-2998 colon = system: HCC-2998 colon
# HCT-116 colon = system: HCT-116 colon
# HCT-15 colon = system: HCT-15 colon
# HL-60(TB) leukemia = system: HL-60(TB) leukemia
# HOP-62 NSCLC = system: HOP-62 NSCLC
# HOP-92 NSCLC = system: HOP-92 NSCLC
# HS 578T breast = system: HS 578T breast
# HT29 colon = system: HT29 colon
# IGROV1 ovarian = system: IGROV1 ovarian
# K-562 leukemia = system: K-562 leukemia
# KM12 colon = system: KM12 colon
# LOX IMVI melanoma = system: LOX IMVI melanoma
# M14 melanoma = system: M14 melanoma
# MALME-3M melanoma = system: MALME-3M melanoma
# MCF7 breast = system: MCF7 breast
# MDA-MB-231 breast = system: MDA-MB-231 breast
# MDA-MB-435 = system: MDA-MB-435
# MOLT-4 leukemia = system: MOLT-4 leukemia
# NCI-H226 lung = system: NCI-H226 lung
# NCI-H23 lung = system: NCI-H23 lung
# NCI-H460 lung = system: NCI-H460 lung
# NCI-H522 lung = system: NCI-H522 lung
# NCI/ADR-RES ovarian = system: NCI/ADR-RES ovarian
# OVCAR-3 ovarian = system: OVCAR-3 ovarian
# OVCAR-4 ovarian = system: OVCAR-4 ovarian
# OVCAR-5 ovarian = system: OVCAR-5 ovarian
# PC-3 prostate = system: PC-3 prostate
# RPMI-8226 leukemia = system: RPMI-8226 leukemia
# RXF 393 renal = system: RXF 393 renal
# SF-268 CNS = system: SF-268 CNS
# SF-295 CNS = system: SF-295 CNS
# SF-539 CNS = system: SF-539 CNS
# SK-MEL-2 melanoma = system: SK-MEL-2 melanoma
# SK-MEL-28 melanoma = system: SK-MEL-28 melanoma
# SK-MEL-5 melanoma = system: SK-MEL-5 melanoma
# SN12C renal = system: SN12C renal
# SNB-19 CNS = system: SNB-19 CNS
# SNB-75 CNS = system: SNB-75 CNS
# SR leukemia = system: SR leukemia
# SW-620 colon = system: SW-620 colon
# T-47D breast = system: T-47D breast
# TK-10 renal = system: TK-10 renal
# U251 CNS = system: U251 CNS
# UACC-257 melanoma = system: UACC-257 melanoma
# UACC-62 melanoma = system: UACC-62 melanoma
# UO-31 renal = system: UO-31 renal
compound,measurement,setting,value
CCOC(=O)c1c(NCC(=O)Nc2cccc([N+](=O)[O-])c2)sc(C(C)=O)c1C,GI50,786-0 renal,1.97 µM
same,TGI,786-0 renal,4.21 µM
same,GI50,A498 renal,1.7 µM
same,TGI,A498 renal,3.31 µM
same,GI50,A549 NSCLC,2.57 µM
same,TGI,A549 NSCLC,8.02 µM
same,GI50,ACHN renal,1.5 µM
same,TGI,ACHN renal,2.9 µM
same,GI50,BT-549 breast,1.44 µM
same,TGI,BT-549 breast,4.85 µM
same,GI50,CAKI-1 renal,1.27 µM
same,TGI,CAKI-1 renal,3.65 µM
same,GI50,CCRF-CEM leukemia,0.585 µM
same,TGI,CCRF-CEM leukemia,> 100 µM
same,GI50,COLO 205 colon,1.65 µM
same,TGI,COLO 205 colon,4.6 µM
same,GI50,DU-145 prostate,2.21 µM
same,TGI,DU-145 prostate,5.91 µM
same,GI50,EKVX NSCLC,2.1 µM
same,TGI,EKVX NSCLC,5.52 µM
same,GI50,HCC-2998 colon,1.98 µM
same,TGI,HCC-2998 colon,3.91 µM
same,GI50,HCT-116 colon,1.71 µM
same,TGI,HCT-116 colon,5.02 µM
same,GI50,HCT-15 colon,0.845 µM
same,TGI,HCT-15 colon,5.35 µM
same,GI50,HL-60(TB) leukemia,2.57 µM
same,TGI,HL-60(TB) leukemia,14.2 µM
same,GI50,HOP-62 NSCLC,2.5 µM
same,TGI,HOP-62 NSCLC,6.58 µM
same,GI50,HOP-92 NSCLC,1.68 µM
same,TGI,HOP-92 NSCLC,4.56 µM
same,GI50,HS 578T breast,2.05 µM
same,TGI,HS 578T breast,5.97 µM
same,GI50,HT29 colon,0.797 µM
same,TGI,HT29 colon,3.26 µM
same,GI50,IGROV1 ovarian,0.414 µM
same,TGI,IGROV1 ovarian,1.62 µM
same,GI50,K-562 leukemia,1.89 µM
same,TGI,K-562 leukemia,> 100 µM
same,GI50,KM12 colon,2.61 µM
same,TGI,KM12 colon,7.99 µM
same,GI50,LOX IMVI melanoma,0.411 µM
same,TGI,LOX IMVI melanoma,1.67 µM
same,GI50,M14 melanoma,1.5 µM
same,TGI,M14 melanoma,3.28 µM
same,GI50,MALME-3M melanoma,1.51 µM
same,TGI,MALME-3M melanoma,3.06 µM
same,GI50,MCF7 breast,1.44 µM
same,TGI,MCF7 breast,5.21 µM
same,GI50,MDA-MB-231 breast,2.12 µM
same,TGI,MDA-MB-231 breast,4.77 µM
same,GI50,MDA-MB-435,1.68 µM
same,TGI,MDA-MB-435,3.1 µM
same,GI50,MOLT-4 leukemia,0.57 µM
same,TGI,MOLT-4 leukemia,> 100 µM
same,GI50,NCI-H226 lung,1.64 µM
same,TGI,NCI-H226 lung,4.46 µM
same,GI50,NCI-H23 lung,1.14 µM
same,TGI,NCI-H23 lung,3.45 µM
same,GI50,NCI-H460 lung,1.21 µM
same,TGI,NCI-H460 lung,3.26 µM
same,GI50,NCI-H522 lung,1.28 µM
same,TGI,NCI-H522 lung,4.12 µM
same,GI50,NCI/ADR-RES ovarian,1.77 µM
same,TGI,NCI/ADR-RES ovarian,5.39 µM
same,GI50,OVCAR-3 ovarian,2.29 µM
same,TGI,OVCAR-3 ovarian,5.69 µM
same,GI50,OVCAR-4 ovarian,2.23 µM
same,TGI,OVCAR-4 ovarian,6.36 µM
same,GI50,OVCAR-5 ovarian,1.42 µM
same,TGI,OVCAR-5 ovarian,4.19 µM
same,GI50,PC-3 prostate,0.794 µM
same,TGI,PC-3 prostate,3.63 µM
same,GI50,RPMI-8226 leukemia,2.51 µM
same,TGI,RPMI-8226 leukemia,6.79 µM
same,GI50,RXF 393 renal,1.21 µM
same,TGI,RXF 393 renal,2.51 µM
same,GI50,SF-268 CNS,2.11 µM
same,TGI,SF-268 CNS,5.16 µM
same,GI50,SF-295 CNS,2.17 µM
same,TGI,SF-295 CNS,5.11 µM
same,GI50,SF-539 CNS,1.82 µM
same,TGI,SF-539 CNS,4.48 µM
same,GI50,SK-MEL-2 melanoma,2.01 µM
same,TGI,SK-MEL-2 melanoma,4.84 µM
same,GI50,SK-MEL-28 melanoma,1.78 µM
same,TGI,SK-MEL-28 melanoma,3.71 µM
same,GI50,SK-MEL-5 melanoma,1.68 µM
same,TGI,SK-MEL-5 melanoma,3.17 µM
same,GI50,SN12C renal,1.84 µM
same,TGI,SN12C renal,5.4 µM
same,GI50,SNB-19 CNS,2.31 µM
same,TGI,SNB-19 CNS,6.5 µM
same,GI50,SNB-75 CNS,2.03 µM
same,TGI,SNB-75 CNS,5.61 µM
same,GI50,SR leukemia,0.646 µM
same,TGI,SR leukemia,> 100 µM
same,GI50,SW-620 colon,0.491 µM
same,TGI,SW-620 colon,7.69 µM
same,GI50,T-47D breast,2.31 µM
same,TGI,T-47D breast,6.71 µM
same,GI50,TK-10 renal,2.1 µM
same,TGI,TK-10 renal,6.81 µM
same,GI50,U251 CNS,2.36 µM
same,TGI,U251 CNS,9.14 µM
same,GI50,UACC-257 melanoma,2.5 µM
same,TGI,UACC-257 melanoma,7.47 µM
same,GI50,UACC-62 melanoma,0.574 µM
same,TGI,UACC-62 melanoma,2.14 µM
same,GI50,UO-31 renal,1.27 µM
same,TGI,UO-31 renal,2.62 µM
